Measured values as given in US12595504B2, “Methods for screening compounds for bactericidal activity and for determining the sensitivity of bacterial samples” (priority 2020, dated 2026).
≈ marks a conversion by molar mass, not a printed value. Read-outs that look alike come from different tables or passages of the source.

Legend:
Escherichia coli MG1655 = assay: Antibiotic MIC determination (serial twofold dilutions, OD600 during 17 hours at 37° C.); type: cell-based; details: 37° C.; for MIC: Escherichia coli
Method: The Minimal Inhibitory Concentration (MIC) of the antibiotics was determined under the same culture conditions as the tests using the ATP assay kit. […] An exponentially growing culture (OD600=0.3) was added to each well (60 μl/well) of a sterile microtiter plate containing the test concentration of antibiotic (40 μl/well). The volume was completed to 120 μl with medium and OD600 nm measurements were performed using a microtiter plate reader (Infinite 200 PRO, TECAN) during 17 hours at 37° C.
In all the following experiments, the MIC values were measured for each antibiotic with parameters such as temperature, OD600 and equipment identical to those used for the bioluminescence assay.

thermostable luciferase = target: T1, thermostable luciferase (Nipponoluciola cruciata, UniProt P13129, A536K/G484A/G534A/I532L/M501V/N494T/N510T/P452A/P477D/R513K/R519V/S465N/S491H/S509T/T217I/T219I/V239I/V459I/V474L/V478D/V500I); type: biochemical
T1 construct: purchased Kikkoman CheckLite AT100
Method: FIG. 5. […] The luciferase-luciferin reagent was preincubated 40 min at 37° C. in presence of various antibiotics in LB before the addition of 30 nM ATP (in the absence of bacteria).
The classical luciferase was from Molecular Probes (ATP Determination Kit (A22066)). The thermostable luciferase was from “CheckLite AT100” (kikkoman). The Luciferin-luciferase reagents were prepared following manufacturer instructions. Bacteria from exponentially growing cultures (OD600=0.3) were added to each well (60 μl/well) of a black 96-microtiter plate (Greiner Bio-one, 655076) and 20 μl of the luciferin-luciferase reagent solution was added. The microtiter plate was incubated 5 min at 37° C. for reaction with the luciferase to eliminate traces of extracellular ATP. Then 40 μl of antibiotic solution (3 times concentrated) prepared in the culture medium were added. Bioluminescence of each well was monitored for 4 hours under shaking (218 rpm) and at 28 or 37° C., depending on the experiments (see legends of Figures). The reagent stability in presence or absence of antibiotics was checked in control experiments without bacteria but with 4 pmoles of ATP. […]
Bioluminescence was thus measured after preincubation of luciferase-lucifering reagent with the antibiotics at their maximal concentration used in this study in LB before the addition of 30 nM ATP (in the absence of bacteria).

[1] = system: E. coli MG1655 reporter cells; type: cell-based, Escherichia coli; details: for Lag before ATP release (shortest, incompressible value): highest concentrations tested
Method: The classical luciferase was from Molecular Probes (ATP Determination Kit (A22066)). The thermostable luciferase was from “CheckLite AT100” (kikkoman). The Luciferin-luciferase reagents were prepared following manufacturer instructions. Bacteria from exponentially growing cultures (OD600=0.3) were added to each well (60 μl/well) of a black 96-microtiter plate (Greiner Bio-one, 655076) and 20 μl of the luciferin-luciferase reagent solution was added. The microtiter plate was incubated 5 min at 37° C. for reaction with the luciferase to eliminate traces of extracellular ATP. Then 40 μl of antibiotic solution (3 times concentrated) prepared in the culture medium were added. Bioluminescence of each well was monitored for 4 hours under shaking (218 rpm) and at 28 or 37° C., depending on the experiments (see legends of Figures). The reagent stability in presence or absence of antibiotics was checked in control experiments without bacteria but with 4 pmoles of ATP. Tests were also performed in 384-microtiter plates (Greiner Bio-one, 784076).
Aminoglycosides are bactericidal antibiotics causing translational miscoding with lethal consequences for the cell. Leakage of small molecules following an aminoglycoside shock was previously identified by different methods including radiolabelling. Therefore, the inventors investigated the response of live cells to aminoglycoside stress.

[2] = MG1655, read-out: MIC in MOPS glucose 0.4%, MOPS minimal medium glucose 0.4%
[3] = MG1655, LB medium, OD600 0.15 final, read-out: MIC in LB
[4] = MOPS minimal medium (glucose 0.4%), FIG. 11
[5] = MOPS minimal medium glucose 0.4%
[6] = antibiotic at 25 μg/mL, LB, 37° C.
[7] = antibiotic at 50 μg/mL, LB, 37° C.
[8] = antibiotic at 100 μg/mL, LB, 37° C.
[9] = antibiotic at 3.125 μg/mL, LB, 37° C.
[10] = antibiotic at 6.25 μg/mL, LB, 37° C.
[11] = antibiotic at 12.5 μg/mL, LB, 37° C.
[12] = antibiotic at 2 μg/mL, LB, 37° C.
[13] = antibiotic at 4 μg/mL, LB, 37° C.
[14] = antibiotic at 8 μg/mL, LB, 37° C.

T1 sequence (P13129 other isoform, or with tags, fused parts or gaps with the stated changes): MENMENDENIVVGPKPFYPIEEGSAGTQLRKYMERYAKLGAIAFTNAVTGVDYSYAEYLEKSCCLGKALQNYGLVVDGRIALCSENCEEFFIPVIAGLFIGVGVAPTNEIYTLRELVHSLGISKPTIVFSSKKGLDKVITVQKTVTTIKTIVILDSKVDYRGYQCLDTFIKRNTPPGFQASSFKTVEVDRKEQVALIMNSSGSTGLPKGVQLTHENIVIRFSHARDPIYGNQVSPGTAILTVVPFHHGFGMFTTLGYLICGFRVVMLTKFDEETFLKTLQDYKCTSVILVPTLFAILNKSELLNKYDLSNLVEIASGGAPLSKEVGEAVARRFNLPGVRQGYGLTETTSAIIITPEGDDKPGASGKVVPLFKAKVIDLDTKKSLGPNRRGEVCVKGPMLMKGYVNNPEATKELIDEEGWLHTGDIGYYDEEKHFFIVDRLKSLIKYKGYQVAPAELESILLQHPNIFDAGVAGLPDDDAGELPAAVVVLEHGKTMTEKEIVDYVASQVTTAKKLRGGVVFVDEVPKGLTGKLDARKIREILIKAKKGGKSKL

Row | Compound | MIC (Escherichia coli MG1655; [2]) [µg/mL] | MIC (Escherichia coli MG1655; [3]) [µg/mL] | Shape of ATP release trace ([1]; LB medium, 37° C., FIG. 8) | Lag time before ATP [1, 6] [min] | Lag time before ATP [1, 7] [min] | Lag time before ATP [1, 9] [min] | Lag time before ATP [1, 10] [min] | Lag time before ATP [1, 11] [min] | other results
1 | COc1cc(Cc2cnc(N)nc2N)cc(OC)c1OC [Trimethoprim] | 6.25 (≈ 21.5 µM) | 50 (≈ 172 µM) | – | – | – | – | – | – | Concentration above which the drug inhibits the luciferase reaction (thermostable luciferase): above 200 μg/mL
2 | COc1ccc(C[C@H](N)C(=O)N[C@H]2[C@@H](O)[C@H](n3cnc4c(N(C)C)ncnc43)O[C@@H]2CO)cc1 [Puromycin] | 871 (≈ 1850 µM) | 435 (≈ 923 µM) | – | – | – | – | – | – | MIC in LB (Escherichia coli MG1655; LB medium, OD600 0.15 final): 377 µg/mL (≈ 800 µM); ATP leakage ([1]; sub-MIC concentrations, LB, FIG. 9): very weak leakage; Effect on the activity of the bioluminescence assay (thermostable luciferase; preincubation with antibiotic in LB, 30 nM ATP, no bacteria, inhibition only at concentration above the MIC): significant inhibition of bioluminescence
3 | CC1=C(C(=O)O)N2C(=O)[C@@H](NC(=O)[C@H](N)c3ccccc3)[C@H]2SC1 [Cephalexin] | 17.4 (≈ 50.1 µM) | 34.7 (≈ 99.9 µM) | multiphasic | – | – | – | – | – | Shape of ATP release trace [1, 4]: monophasic; Lag time before ATP ([1]; antibiotic at 8.8 μg/mL, LB, 37° C.): 34.3 min; Lag time before ATP ([1]; antibiotic at 17.5 μg/mL, LB, 37° C.): 9.45 min; Lag time before ATP ([1]; antibiotic at 35 μg/mL, LB, 37° C.): 5 min; Lag time before ATP ([1]; antibiotic at 70 μg/mL, LB, 37° C.): 3.6 min; Lag time before ATP ([1]; antibiotic at 140 μg/mL, LB, 37° C.): 3.6 min; Lag before ATP release (shortest, incompressible value) ([1]; LB, 37° C.): 3.6 min
4 | Bleomycin | – | – | – | 164.0 | 142.0 | – | – | – | MIC in LB (Escherichia coli MG1655; LB medium, OD600 0.15 final): 100 µg/mL; MIC in MOPS glucose 0.4% (Escherichia coli MG1655; [5]): 200 µg/mL; Lag time before ATP [1, 8]: 98.0 min; Lag time before ATP ([1]; antibiotic at 200 μg/mL, LB, 37° C.): 78.0 min; Lag time before ATP ([1]; antibiotic at 400 μg/mL, LB, 37° C.): 71.5 min
5 | CC[C@H]1OC(=O)[C@H](C)[C@@H](O[C@H]2C[C@@](C)(OC)[C@@H](O)[C@H](C)O2)[C@H](C)[C@@H](O[C@@H]2O[C@H](C)C[C@H](N(C)C)[C@H]2O)[C@](C)(O)C[C@@H](C)CN(C)[C@H](C)[C@@H](O)[C@]1(C)O [Azithromycin] | 125 (≈ 167 µM) | 175 (≈ 234 µM) | – | – | – | – | – | – | High dose at which ATP release was observed ([1]; LB, FIG. 9): 2.5 times the MIC; ATP leakage ([1]; highest concentration (400 μg/mL), MOPS minimal medium (glucose 0.4%)): stimulated a ATP leakage
6 | NCC[C@H](O)C(=O)N[C@@H]1C[C@H](N)[C@@H](O[C@H]2O[C@H](CN)[C@@H](O)[C@H](O)[C@H]2O)[C@H](O)[C@H]1O[C@H]1O[C@H](CO)[C@@H](O)[C@H](N)[C@H]1O [Amikacin] | 1.56 (≈ 2.66 µM) | 12.5 (≈ 21.3 µM) | bi-phasic | 16.0 | 10.5 | 42 | 31.0 | 21.6 | –
7 | CN[C@@H]1[C@@H](O[C@H]2O[C@H](CO)[C@@H](N)[C@H](O)[C@H]2O)OC2C[C@@H](N)[C@@H](O[C@H]3[C@H](O)[C@@H](O)[C@H](N)C[C@@H]3N)OC2[C@@H]1O (some centres unmarked) [Apramycin] | 2.5 (≈ 4.63 µM) | 20.2 (≈ 37.4 µM) | bi-phasic | – | – | – | – | – | Shape of ATP release trace [1, 4]: monophasic; Lag time before ATP ([1]; antibiotic at 6.75 μg/mL, LB, 37° C.): 60.9 min; Lag time before ATP ([1]; antibiotic at 13.5 μg/mL, LB, 37° C.): 30.0 min; Lag time before ATP ([1]; antibiotic at 27 μg/mL, LB, 37° C.): 13.3 min; Lag time before ATP ([1]; antibiotic at 54 μg/mL, LB, 37° C.): 10.9 min; Lag before ATP release (shortest, incompressible value) ([1]; LB, 37° C.): ~10.9 min
8 | Polymyxin B | – | – | bi-phasic | – | – | – | – | – | MIC in LB (Escherichia coli MG1655; LB medium, OD600 0.15 final): 8 µg/mL; MIC in MOPS glucose 0.4% (Escherichia coli MG1655; [5]): 4 µg/mL; Dose at which the amplitude of the initial burst was maximal ([1]; LB, FIG. 8): 4 µg/mL; Shape of ATP release trace [1, 4]: monophasic; Intensity of ATP release signal in minimal medium compared to rich medium (factor of decrease) ([1]; MOPS minimal medium vs LB): 3; Lag before ATP release ([1]; above the concentration of 4 μg/ml, LB): < 2.4 min; Lag time before ATP [1, 12]: 5.3 min; Lag time before ATP [1, 13]: 2.4 min; Lag time before ATP [1, 14]: < 2.4 min; Lag time before ATP ([1]; antibiotic at 16 μg/mL, LB, 37° C.): < 2.4 min; Lag time before ATP ([1]; antibiotic at 32 μg/mL, LB, 37° C.): < 2.4 min
9 | CC[C@H]1OC(=O)[C@H](C)[C@@H](O[C@H]2C[C@@](C)(OC)[C@@H](O)[C@H](C)O2)[C@H](C)[C@@H](O[C@@H]2O[C@H](C)C[C@H](N(C)C)[C@H]2O)[C@](C)(O)C[C@@H](C)C(=O)[C@H](C)[C@@H](O)[C@]1(C)O [Erythromycin] | 1600 (≈ 2180 µM) | 400 (≈ 545 µM) | – | – | – | – | – | – | Amplitude of ATP release ([1]; bacteriostatic antibiotics, LB, FIG. 9): very weak amplitude
10 | CO/N=C(\C(=O)N[C@@H]1C(=O)N2C(C(=O)O)=C(CSc3nc(=O)c(=O)[nH]n3C)CS[C@H]12)c1csc(N)n1 [Ceftriaxone] | 6.25 (≈ 11.3 µM) | 12.5 (≈ 22.5 µM) | – | 16.5 | 13.9 | 29.7 | 21.2 | 19.2 | –
11 | CC1COc2c(N3CCN(C)CC3)c(F)cc3c(=O)c(C(=O)O)cn1c23 (centres unmarked) [Ofloxacin] | 4 (≈ 11.1 µM) | 4 (≈ 11.1 µM) | – | – | – | – | – | – | Lag time of ATP release in minimal medium compared to rich medium (factor of decrease) ([1]; MOPS minimal medium vs LB): 2; Lag time before ATP ([1]; antibiotic at 1 μg/mL, LB, 37° C.): 105 min; Lag time before ATP [1, 12]: 95 min; Lag time before ATP [1, 13]: 84 min; Lag time before ATP [1, 14]: 77 min; Lag before ATP release (shortest, incompressible value) ([1]; LB, 37° C.): 77 min
12 | CC1(C)S[C@@H]2[C@H](NC(=O)[C@H](N)c3ccc(O)cc3)C(=O)N2[C@H]1C(=O)O [Amoxicillin] | 12.5 (≈ 34.2 µM) | 12.5 (≈ 34.2 µM) | – | 8 | 6.9 | 39.3 | 31.4 | 11.4 | –
13 | CO[C@H]1/C=C/O[C@@]2(C)Oc3c(C)c(O)c4c(O)c(c(/C=N/N5CCN(C)CC5)c(O)c4c3C2=O)NC(=O)/C(C)=C\C=C\[C@H](C)[C@H](O)[C@@H](C)[C@@H](O)[C@@H](C)[C@H](OC(C)=O)[C@@H]1C [Rifampicin] | 25 (≈ 30.4 µM) | 50 (≈ 60.8 µM) | – | 38 | 34.8 | 67 | 63.8 | 57.1 | Lag of ATP leakage ([1]; LB, FIG. 9): about 30 minutes; Lag time before ATP [1, 8]: 34.6 min
